# Measured values: patent US8703715B2, “Methods for inhibiting growth of prolactin-responsive cancer cells with cyclosporine a or other cyclophilin inhibitors” (The Trustees of the University of Pennsylvania, priority 2004, dated 2014)
# Key:
# [1] = test system: breast cancer cells; details: breast cancer cells in culture
# [2] = human patients, approved indications (immunosuppressive use); cited from earlier work
substance,measurement,setting,value
cyclosporine A,media concentration having profound effects on survival of breast cancer cells,[1],≥ 20 ng/mL
same,Peak serum concentrations,[2],2 to 8 µg/mL
